Where a SMILES comes first, the peptide text is derived from it.
Columns and labels:
B*3501 = B*3501 (Homo sapiens, UniProt P01889, A329T/A93T/A95T/C349S/D201E/D98Y/E176V/E187L/E204Q/E69T/I218V/K202T/L119I/Q94N/R155S/R180L/S121R/S35A/S48A/T118I/V127L/V306I/V36M/Y140S/Y91F); experiment: Competition binding assay using soluble HLA class I; conditions: for Ki: HLA-B3501 section
HLA-Cw06 = biological target: T1, HLA-Cw06 (Homo sapiens, UniProt P10321, A176E/A330V/C350S/L171W/L180W/L218V/M285V/M309V/M331V/N104K/P208H/Q277E/Q291P/R121W/R243W/S101N/S123Y/S297R/T329A/T363A/V319A/V328M); experiment: HLA class I competition cell-based binding assay
T1 construct: endogenous in cells

HLA-Cw07 = biological target: T2, HLA-Cw07 (Homo sapiens, UniProt P10321); experiment: HLA class I competition cell-based binding assay
T2 construct: endogenous in cells

DRB1*0301 = biological target: T3, DRB1*0301 (Homo sapiens, UniProt P01903+P01911, A100K/A102G/A103R/A169T/F55Y/I96L/K41T/L162R/M171V/P40S/Q125H/Q178H/Q39Y/R42S/S66N/T106N/T262R/W38E/Y61H); experiment: Competition binding assay using soluble HLA class II
T3 construct: endogenous in cells; HLA-DR was extracted from cell lysates on an LB3.1 antibody column

DRB1*0101 = biological target: T4, DRB1*0101 (Homo sapiens, UniProt P01903+P01911, A100R/D57E/F55L/F60I/F76Y/I96L/L162R/M171V/P40L/Q125E/R42F/V115G/Y59C); experiment: as above
T4 construct: endogenous in cells; host or cells: cell lysate

B*0702 = biological target: T5, B*0702 (Homo sapiens, UniProt P01889); experiment: Competition binding assay using soluble HLA class I
T5 construct: endogenous in cells

## CC[C@H](C)[C@H](NC(=O)[C@H](CCC(N)=O)NC(=O)CNC(=O)CNC(=O)CNC(=O)[C@@H]1CCCN1C(=O)[C@@H](N)Cc1ccccc1)C(=O)N[C@H](C(=O)NCC(=O)O)C(C)C
B*3501
  Ki: 2600 nM

## CC[C@H](C)[C@H](NC(=O)[C@@H]1CCCN1C(=O)[C@@H](NC(=O)[C@H](C)NC(=O)[C@H](CCCCN)NC(=O)CNC(=O)[C@H](Cc1ccc(O)cc1)NC(=O)[C@@H](N)Cc1ccccc1)[C@@H](C)CC)C(=O)N[C@@H](CCC(=O)O)C(=O)N[C@H](C(=O)O)C(C)C
HLA-Cw06
  Ki: 5690 nM
HLA-Cw07
  Ki: 31 nM

## CSCC[C@H](NC(=O)[C@H](CCCNC(=N)N)NC(=O)[C@H](Cc1c[nH]cn1)NC(=O)CN)C(=O)N[C@@H](C)C(=O)N[C@@H](Cc1c[nH]c2ccccc12)C(=O)N[C@@H](CC(=O)O)C(=O)N[C@@H](CCSC)C(=O)N[C@@H](CCSC)C(=O)N[C@@H](CCSC)C(=O)N[C@@H](CC(N)=O)C(=O)N[C@@H](Cc1c[nH]c2ccccc12)C(=O)N[C@@H](CO)C(=O)N1CCC[C@H]1C(=O)N[C@H](C(=O)O)[C@@H](C)O
DRB1*0301
  IC50: 919 nM
DRB1*0101
  IC50: 183 nM

## CC[C@H](C)[C@H](N)C(=O)N[C@@H](CCCNC(=N)N)C(=O)N[C@@H](CO)C(=O)N[C@@H](CC(C)C)C(=O)N[C@H](C(=O)N[C@@H](CCC(=O)O)C(=O)N[C@@H](CCCNC(=N)N)C(=O)N[C@@H](CC(C)C)C(=O)N[C@@H](Cc1ccc(O)cc1)C(=O)O)[C@@H](C)O
HLA-Cw06
  Ki: 318 nM
HLA-Cw07
  Ki: 25 nM

## CC(C)C[C@H](NC(=O)[C@H](CC(C)C)NC(=O)[C@@H]1CCCN1C(=O)[C@@H](NC(=O)[C@@H]1CCCN1C(=O)CNC(=O)[C@H](Cc1c[nH]cn1)NC(=O)[C@@H](N)CC(C)C)[C@@H](C)O)C(=O)N[C@@H](Cc1ccc(O)cc1)C(=O)O
HLA-Cw07
  Ki: 31 nM

## CSCC[C@H](N)C(=O)NCC(=O)N[C@@H](CO)C(=O)N[C@@H](CO)C(=O)N[C@@H](Cc1ccc(O)cc1)C(=O)NCC(=O)N[C@@H](Cc1ccccc1)C(=O)N[C@@H](CCC(N)=O)C(=O)N[C@@H](Cc1ccc(O)cc1)C(=O)O
B*3501
  Ki: 2610 nM

## CC[C@H](C)[C@H](NC(=O)[C@@H](N)CC(N)=O)C(=O)N[C@H](C(=O)N[C@@H](CC(=O)O)C(=O)N[C@H](C(=O)N[C@@H](CCC(N)=O)C(=O)N[C@@H](Cc1ccc(O)cc1)C(=O)N[C@@H](CC(C)C)C(=O)N[C@@H](Cc1ccc(O)cc1)C(=O)O)C(C)C)C(C)C
HLA-Cw07
  Ki: 56 nM

## CC(C)[C@H](NC(=O)[C@H](CCCNC(=N)N)NC(=O)[C@H](C)NC(=O)[C@H](C)NC(=O)[C@H](C)NC(=O)[C@H](CC(=O)O)NC(=O)[C@H](CO)NC(=O)[C@H](CCC(=O)O)NC(=O)[C@@H]1CCCN1C(=O)[C@@H](NC(=O)[C@H](Cc1ccc(O)cc1)NC(=O)[C@H](Cc1c[nH]cn1)NC(=O)[C@@H](NC(=O)[C@@H]1CCCN1)[C@@H](C)O)C(C)C)C(=O)N[C@H](C(=O)O)[C@@H](C)O
DRB1*0301
  IC50: 4950 nM

## CC[C@H](C)[C@H](NC(=O)[C@@H]1CCCN1C(=O)[C@H](C)NC(=O)[C@H](CC(C)C)NC(=O)[C@H](CC(C)C)NC(=O)[C@@H](N)CCCNC(=N)N)C(=O)N[C@H](C(=O)N[C@@H](C)C(=O)N[C@@H](Cc1ccc(O)cc1)C(=O)O)[C@@H](C)O
HLA-Cw07
  Ki: 4820 nM

## CC(C)C[C@H](NC(=O)[C@H](CCCNC(=N)N)NC(=O)[C@@H](NC(=O)[C@H](CO)NC(=O)[C@@H](NC(=O)[C@H](CCC(=O)O)NC(=O)[C@H](C)NC(=O)[C@@H]1CCCN1C(=O)[C@@H](N)[C@@H](C)O)[C@@H](C)O)C(C)C)C(=O)O
B*0702
  IC50: 375 nM
B*0702; Ki (nM), HLA-B0702 section
  Ki: 375 nM
B*0702; binds B0702 with Ki < 1000 nM (asterisk), asterisk in the HLA-B3501 section
  Ki: < 1000 nM
B*3501; Table 18, HLA-B7 binding peptides
  IC50: 1640 nM

## CC(C)C[C@H](NC(=O)[C@H](Cc1ccccc1)NC(=O)[C@H](CCCCN)NC(=O)CNC(=O)[C@H](Cc1ccc(O)cc1)NC(=O)[C@@H](NC(=O)[C@H](CO)NC(=O)[C@H](Cc1ccc(O)cc1)NC(=O)[C@@H](N)[C@@H](C)O)[C@@H](C)O)C(=O)O
HLA-Cw06
  Ki: 4860 nM
HLA-Cw07
  Ki: 239 nM

## CSCC[C@H](NC(=O)[C@H](CC(C)C)NC(=O)[C@H](C)NC(=O)[C@H](CC(=O)O)NC(=O)[C@@H](NC(=O)[C@H](C)NC(=O)[C@@H](NC(=O)[C@@H](NC(=O)[C@@H](NC(=O)[C@@H](N)C(C)C)C(C)C)C(C)C)C(C)C)[C@@H](C)O)C(=O)N[C@H](C(=O)NCC(=O)N[C@@H](Cc1ccc(O)cc1)C(=O)N[C@H](C(=O)NCC(=O)O)[C@@H](C)O)[C@@H](C)O
DRB1*0301
  IC50: 93 nM

## N=C(N)NCCC[C@H](NC(=O)[C@H](CCC(N)=O)NC(=O)[C@@H](N)CC(=O)O)C(=O)N1CCC[C@H]1C(=O)N[C@@H](Cc1ccc(O)cc1)C(=O)N[C@@H](CS)C(=O)N[C@@H](Cc1c[nH]c2ccccc12)C(=O)N[C@@H](Cc1c[nH]cn1)C(=O)N[C@@H](Cc1ccc(O)cc1)C(=O)O (H-DQRPYCWHY-OH; N-terminus and C-terminus assumed)
HLA-Cw07
  Ki: 710 nM

## C[C@H](NC(=O)[C@H](CCC(=O)O)NC(=O)[C@@H]1CCCN1C(=O)[C@H](Cc1c[nH]cn1)NC(=O)[C@H](CCCCN)NC(=O)[C@H](CCCNC(=N)N)NC(=O)[C@@H](N)Cc1ccccc1)C(=O)N[C@H](C(=O)N[C@@H](Cc1ccc(O)cc1)C(=O)O)[C@@H](C)O (H-FRKHPEATY-OH; N-terminus and C-terminus assumed)
HLA-Cw07
  Ki: 0.2 nM

## CC(C)C[C@H](NC(=O)[C@H](CCCNC(=N)N)NC(=O)[C@@H]1CCCN1C(=O)CN)C(=O)NCC(=O)N[C@H](C(=O)N[C@@H](CCCNC(=N)N)C(=O)N[C@@H](C)C(=O)N[C@H](C(=O)N[C@@H](CCCNC(=N)N)C(=O)N[C@@H](CCCCN)C(=O)N[C@H](C(=O)N[C@@H](CO)C(=O)N[C@@H](CCC(=O)O)C(=O)N[C@@H](CCCNC(=N)N)C(=O)O)[C@@H](C)O)[C@@H](C)O)C(C)C (H-GPRLGVRATRKTSER-OH; N-terminus and C-terminus assumed)
DRB1*0301
  IC50: 18900 nM

## CC[C@H](C)[C@H](NC(=O)[C@H](CC(C)C)NC(=O)[C@H](CCCNC(=N)N)NC(=O)[C@H](C)NC(=O)[C@@H]1CCCN1C(=O)[C@H](CCCCN)NC(=O)[C@H](CCCNC(=N)N)NC(=O)CN)C(=O)N[C@H](C(=O)N[C@@H](Cc1ccccc1)C(=O)O)C(C)C (H-GRKPARLIVF-OH)
HLA-Cw06
  Ki: 8960 nM
HLA-Cw07
  Ki: 753 nM

## CC(C)C[C@H](NC(=O)[C@H](C)NC(=O)CNC(=O)[C@H](C)NC(=O)[C@@H](NC(=O)CN)C(C)C)C(=O)N[C@H](C(=O)N[C@@H](C)C(=O)N[C@@H](Cc1ccccc1)C(=O)O)C(C)C (H-GVAGALVAF-OH; N-terminus and C-terminus assumed)
HLA-Cw07
  Ki: 6160 nM

## CSCC[C@H](NC(=O)CNC(=O)[C@H](CCC(=O)O)NC(=O)[C@H](CC(N)=O)NC(=O)CNC(=O)[C@H](Cc1ccc(O)cc1)NC(=O)[C@@H](N)CC(C)C)C(=O)NCC(=O)N[C@@H](Cc1c[nH]c2ccccc12)C(=O)N[C@@H](C)C(=O)O (H-LYGNEGMGWA-OH; N-terminus and C-terminus assumed)
HLA-Cw07
  Ki: 5110 nM

## CC(C)C[C@H](NC(=O)[C@@H](NC(=O)CNC(=O)[C@H](CO)NC(=O)[C@H](C)NC(=O)[C@H](CCCNC(=N)N)NC(=O)[C@H](CS)NC(=O)[C@H](CCCNC(=N)N)NC(=O)[C@H](CCCNC(=N)N)NC(=O)[C@@H](N)Cc1ccc(O)cc1)C(C)C)C(=O)O (H-YRRCRASGVL-OH)
HLA-Cw07
  Ki: 83 nM

## CC[C@H](C)[C@H](NC(=O)[C@@H](NC(=O)[C@H](CO)NC(=O)[C@@H](NC(=O)[C@H](CC(=O)O)NC(=O)[C@H](CC(C)C)NC(=O)CNC(=O)[C@H](CCCNC(=N)N)NC(=O)[C@H](Cc1ccc(O)cc1)NC(=O)[C@@H](N)Cc1ccc(O)cc1)C(C)C)C(C)C)C(=O)O (H-YYRGLDVSVI-OH)
HLA-Cw07
  Ki: 87 nM

From patent US20060093617A1, “Peptides for inducing a CTL and/or HTL response to hepatitis C virus” (Innogenetics, N.V., priority 2004, published 2006)
